Results: US5411933A, “Bromopropargyl quarternary ammonium compounds having antimicrobial activity” (Rohm & Haas Company, priority 1994, dated 1995)

Legend:
Aspergillus niger = experiment: minimum inhibitory concentration, broth two-fold serial dilution test, Aspergillus niger; type: cell-based, Aspergillus niger ATCC 6275; conditions: for MIC: Aspergillus niger, ATCC6275, Aspergillus niger ATCC 6275, TSB media, lowest concentration with complete inhibition of growth, read-out: MIC (TSB media) Anig; for MIC (TSB media) Anig: Aspergillus niger ATCC 6275, lowest concentration with complete inhibition of growth
Procedure: (§1) Bactericidal and fungicidal evaluations of the compounds of Example 5 were carried out.
(§2) A minimum inhibitory concentration (MIC) value is obtained using a broth, two-fold serial dilution test performed as follows: A stock solution or dispersion of the test compound, typically at a concentration of 1%, is made in a 5:3:2 solvent solution of acetone, methanol, and water. A volume of the stock solution is dispensed into culture media to give an initial starting test concentration of 500 ppm compound.
(§3) When the test is ready to be done, each vessel in the dilution series, except the first vessel, contains an equal volume of compound free broth. The first vessel contains twice the volume of broth with the starting concentration of test compound. One half of the broth from the first vessel is transferred to the second vessel. After being mixed, one half the resulting volume is removed from the second vessel and transferred to the third vessel. The entire cycle is repeated sufficiently to give a series of concentrations amounting to 500, 250, 125, 63, 31, 16, 8 and 4, 2, 1, 0.5, 0.25 ppm respectively.
(§4) Each vessel is then inoculated with a cell suspension of the appropriate test organism. Bacteria are grown in broth, fungi or agar slants for a time and at a temperature appropriate to the species being tested, and algae are a mixture of green algae and blue-green bacteria grown in a nutrient media. At the end of the growth period, in the case of bacteria, the broth is vortexed to disperse the cells.
(§5) In the case of fungi, the spores are harvested by pipetting water onto the slant and dislodging the spores with a sterile loop. The cell/spore suspension is standardized by controlling incubation time, temperature, and the volume of the diluent. The suspension is then used to inoculate the vessels containing the broth compound.
(§6) The vessels are then incubated at the appropriate temperature. After the incubation, the vessels are examined for growth/no growth. The minimum inhibitory concentration (MIC) is defined as the lowest concentration of compounds that results in complete inhibition of growth of the test organism.
3. Aspergillus niger 6275 Anig

Pseudomonas aeruginosa = experiment: minimum inhibitory concentration, broth two-fold serial dilution test, Pseudomonas aeruginosa; type: cell-based, Pseudomonas aeruginosa ATCC 15442; conditions: for MIC: Pseudomonas aeruginosa, ATCC15442, Pseudomonas aeruginosa ATCC 15442, TSB media, lowest concentration with complete inhibition of growth, read-out: MIC (TSB media) Psae; for MIC (TSB media) Psae: Pseudomonas aeruginosa ATCC 15442, lowest concentration with complete inhibition of growth
Procedure: as §1, §2, §3, §4, §6
1. Pseudomonas aeruginosa

Escherichia coli = experiment: minimum inhibitory concentration, broth two-fold serial dilution test, Escherichia coli; type: cell-based, Escherichia coli ATCC 11229; conditions: for MIC: Escherichia coli, ATCC11229, Escherichia coli ATCC 11229, TSB media, lowest concentration with complete inhibition of growth, read-out: MIC (TSB media) Ecol; for MIC (TSB media) Ecol: Escherichia coli ATCC 11229, lowest concentration with complete inhibition of growth
Procedure: as §1, §2, §3, §4, §6

Rhodotorula rubra = experiment: minimum inhibitory concentration, broth two-fold serial dilution test, Rhodotorula rubra; type: cell-based; conditions: lowest concentration with complete inhibition of growth; for MIC: Rhodotorula, TSB media, read-out: MIC (TSB media) Rrub
Procedure: as §1, §2, §3, §4, §5, §6
4. Rhodotorula rubra Rrub

| MIC (Aspergillus niger) [µg/mL] | MIC (Pseudomonas aeruginosa) [µg/mL] | MIC (Escherichia coli) [µg/mL] | MIC (Rhodotorula rubra) [µg/mL] | MIC (TSB media) Psae (Pseudomonas aeruginosa) [ppm] | MIC (TSB media) Ecol (Escherichia coli) [ppm] | MIC (TSB media) Anig (Aspergillus niger) [ppm] | MIC (TSB media) Rrub (Rhodotorula rubra) [ppm] | Molecule |
| --- | --- | --- | --- | --- | --- | --- | --- | --- |
| – | – | – | – | 8 | < 4 | 3.2 | 0.8 | CCCCCCCC[N+](CC#CBr)(CCCCCCCC)CCCCCCCC [Compound 20, trioctyl(3-bromopropargyl) ammonium 4-methylbenzenesulfonate] |
| 25 | 500 | 125 | – | – | – | – | 12.5 | CCCCCC[N+](CC#CBr)(CCCCCC)CCCCCC [Compound 22, trihexyl(3-bromopropargyl) ammonium benzenesulfonate] |
| – | – | – | – | 500 | 250 | 50 | < 50 | CCCCCC[N+](CC#CBr)(CCCCCC)CCCCCC [Compound 23, trihexyl(3-bromopropargyl) ammonium 4-methylbenzenesulfonate] |
| > 50 | 500 | 500 | > 50 | – | – | – | – | CCCCCCCCCCCC[N+](CC#CBr)(CCCCCCCCCCCC)CCCCCCCCCCCC [Compound 24, tridodecyl(3-bromopropargyl) ammonium 4-methylbenzenesulfonate] |
| 12.5 | 500 | 32 | 6.3 | – | – | – | – | CCCCCCCC[N+](C)(CC#CBr)CCCCCCCC [Compound 25, methyldioctyl(3-bromopropargyl) ammonium 4-methylbenzenesulfonate] |
| 12.5 | > 500 | 63 | 6.3 | – | – | – | – | CCCCCC[N+](CC#CI)(CCCCCC)CCCCCC [Compound 31, reference compound] |
| 4 | 125 | 8 | 4 | – | – | – | – | CCCCCCCCCCCCCC[N+]1(CC#CI)CCOCC1 [Compound 32, reference compound] |
| 4 | 125 | 4 | 2 | – | – | – | – | CCCCCCCCCCCCCC[N+]1(CC#CI)CCCCC1 [Compound 33, reference compound] |
| 1.6 | 1.6 | > 500 | 1.6 | – | – | – | – | CCCCCCCC[N+](CC#CI)(CCCCCCCC)CCCCCCCC [Compound 34, reference compound] |

Further lines, the molecule ahead of its results:

| Molecule | MIC (Aspergillus niger) [µg/mL] | MIC (Pseudomonas aeruginosa) [µg/mL] | MIC (Escherichia coli) [µg/mL] | MIC (Rhodotorula rubra) [µg/mL] | MIC (TSB media) Psae (Pseudomonas aeruginosa) [ppm] | MIC (TSB media) Ecol (Escherichia coli) [ppm] | MIC (TSB media) Anig (Aspergillus niger) [ppm] | MIC (TSB media) Rrub (Rhodotorula rubra) [ppm] |
| --- | --- | --- | --- | --- | --- | --- | --- | --- |
| CCCCCCCCCCCCCC[N+]1(CC#CBr)CCCC1 [Compound 1, 1-tetradecyl-1-(3-bromopropargyl)-pyrrolidinium 4-methylbenzenesulfonate] | < 4 | > 500 | 8 | < 4 | – | – | – | – |
| CCCCCCCCCCCCCC[N+]1(CC#CBr)CCOCC1 [Compound 2, 1-tetradecyl-1-(3-bromopropargyl)-morpholinium benzenesulfonate] | < 4 | – | – | < 4 | 63 | 8 | – | – |
| CCCCCCCCCCCCCC[N+]1(CC#CBr)CCOCC1 [Compound 3, 1-tetradecyl-1-(3-bromopropargyl)-morpholinium 4-methylbenzenesulfonate] | – | – | – | – | 250 | 8 | < 4 | < 4 |
| CCCCCCCCCCCCCC[N+]1(CC#CBr)CCOCC1 [Compound 4, 1-tetradecyl-1-(3-bromopropargyl)-morpholinium methanesulfonate] | – | – | – | – | 500 | 32 | < 4 | < 4 |
| CCCCCCCCCCCCCC[N+]1(CC#CBr)CCCC1 [Compound 5, 1-tetradecyl-1-(3-bromopropargyl)-pyrrolidinium benzenesulfonate] | – | – | – | – | 500 | 8 | < 4 | < 4 |
| CCCCCCCCCCCCCC[N+]1(CC#CBr)CCCCC1 [Compound 6, 1-tetradecyl-1-(3-bromopropargyl)-piperidinium methanesulfonate] | < 4 | – | – | < 4 | > 500 | > 500 | – | – |
| CCCCCCCCCCCCCC[N+]1(CC#CBr)CCOCC1 [Compound 7, 1-tetradecyl-1-(3-bromopropargyl)-morpholinium n-butanesulfonate] | – | – | – | – | 500 | 16 | < 4 | < 4 |
| CCCCCCCCCCCCCC[N+]1(CC#CBr)CCCC1 [Compound 8, 1-tetradecyl-1-(3-bromopropargyl)-pyrrolidinium n-butanesulfonate] | – | – | – | – | 250 | < 4 | < 4 | < 4 |
| CCCCCCCCCCCCCC[N+]1(CC#CBr)CCOCC1 [Compound 9, 1-tetradecyl-1-(3-bromopropargyl)-morpholinium bromide] | – | – | – | – | 125 | 8 | < 4 | < 4 |
| CCCCCCCCCCCCC[N+]1(CC#CBr)CCOCC1 [Compound 10, 1-tridecyl-1-(3-bromopropargyl)-morpholinium bromide] | 16 | 250 | 32 | < 4 | – | – | – | – |
| CCCCCCCCCCCCCCCC[N+]1(CC#CBr)CCOCC1 [Compound 11, 1-hexadecyl-1-(3-bromopropargyl)-morpholinium bromide] | – | 500 | – | – | – | 16 | < 4 | < 4 |
| CCCCCCCCCCCC[N+]1(CC#CBr)CCOCC1 [Compound 12, 1-dodecyl-1-(3-bromopropargyl)-morpholinium 4-methylbenzenesulfonate] | 16 | 500 | 63 | < 4 | – | – | – | – |
| CCCCCCCCCCCCCCCC[N+]1(CC#CBr)CCOCC1 [Compound 13, 1-hexadecyl-1-(3-bromopropargyl)-morpholinium methanesulfonate] | – | – | – | – | 500 | > 500 | 16 | 32 |
| CCCCCCCCCCCCCC[N+]1(CC#CBr)CCCCC1C (centres unmarked) [Compound 14, 1-tetradecyl-1-(3-bromopropargyl)-(2-methyl)piperidinium 4-methylbenzenesulfonate] | < 4 | – | < 4 | – | 125 | – | – | < 4 |
| CCCCCCCCCCCCCC[N+]1(CC#CBr)CCCCC1C (centres unmarked) [Compound 15, 1-tetradecyl-1-(3-bromopropargyl)-(2-methyl)piperidinium methanesulfonate] | – | – | – | – | 300 | 5 | 3.2 | < 1 |
| CCCCCCCCCCCCCC[N+]1(CC#CBr)CCCCC1C (centres unmarked) [Compound 16, 1-tetradecyl-1-(3-bromopropargyl)-(2-methyl)piperidinium benzenesulfonate] | – | – | – | – | 500 | 8 | < 4 | < 4 |
| CCCCCCCCCCCCCC[N+]1(CC#CBr)CCCCC1 [Compound 17, 1-tetradecyl-1-(3-bromopropargyl)-piperidinium benzenesulfonate] | – | – | – | – | 32 | < 4 | < 4 | < 4 |
| CCCCCCCC[N+](CC#CBr)(CCCCCCCC)CCCCCCCC [Compound 18, trioctyl-(3-bromopropargyl) ammonium benzenesulfonate] | 1.6 | 16 | < 4 | 1.6 | – | – | – | – |
| CCCCCCCC[N+](C)(C)CC#CBr [Compound 19, dimethyloctyl(3-bromopropargyl) ammonium benzenesulfonate] | < 4 | 250 | 16 | < 4 | – | – | – | – |
| dimethyldodecyl ammonium 4-methylbenzenesulfonate [Compound 21] | – | – | – | – | 250 | 32 | 6.3 | 3.2 |
